In one data set the test system is MDCKII-MDR1 cells. Nature of the data set: MDCKII-MDR1 permeability. As for the experimental part: MDCKII-MDR1 Permeability (Independently Performed By: Pharmaron Inc., Ninqbo, CN)
To each well of the Transwell insert and reservoir were added 50 μL and 25 mL of cell culture medium, respectively.
To determine the rate of drug transport in the apical to basolateral direction, 125 μL of the working solution of either test compounds or control compounds was added to the Transwell insert (apical compartment) and a 50 μL sample was immediately transferred from the apical compartment to 200 μL of acetonitrile containing internal standard (100 nM alprazolam, 200 nM caffeine, and 100 nM tolbutamide) in a new 96-well plate as the initial donor sample (A-B). The sample was then vortexed at 1,000 rpm for 10 min. The receiver plate (basolateral compartment) wells were then filled with 235 μL transport buffer. To determine the rate of drug transport in the basolateral to apical direction, 285 μL of the working solution of either test compounds or control compounds was added to the receiver plate (basolateral compartment) wells and a 50 μL of sample was immediately transferred from the basolateral compartment to 200 μL of acetonitrile containing internal standard in a new 96-well plate as the initial donor sample (B-A). The sample was vortexed for 10 min at 1,000 rpm. The Transwell insert (apical compartment) was then filled with 75 μL of transport buffer and the apical to basolateral direction and the basolateral to apical direction were done at the same time. […] After incubation, 50 μL samples from donor sides (apical compartment for Ap→BI flux, and basolateral compartment BI→Ap) and receiver sides (basolateral compartment for Ap→BI flux, and apical compartment for BI→Ap) were transferred to wells of a new 96-well plate, followed by the addition of 200 μL acetonitrile containing internal standard. […] An aliquot of 100 μL of the supernatant was mixed with an appropriate volume of ultra-pure water before LC-MS/MS analysis.
To monitor for monolayer integrity, Lucifer yellow leakage was determined after the 2 h transport period. This began by preparing a stock solution of Lucifer yellow in DMSO and diluted with HBSS (10 mM HEPES, pH 7.4.) to reach a final concentration of 100 μM. To each Transwell insert (apical compartment) was then added 100 μL of the Lucifer yellow solution, followed by filling the wells in the receiver plate (basolateral compartment) with 300 μL of HBSS (10 mM HEPES, pH 7.4).
(§1) The efflux ratio was determined using the following equation: […]

The subject of a further data set is Caco-2 cells. The data set can be described thus: Caco-2 permeability. As to conditions: Papp (b − a/a − b). As for the experimental part: Caco-2 Permeability (Independently Performed by Pharmaron Inc., Ningbo, CN)
To each well of the Transwell insert and reservoir were added 50 μL and 25 mL of cell culture medium, respectively. […] Following this, the Caco-2 plate was removed from the incubator and the monolayer washed twice with pre-warmed HBSS (10 mM HEPES, pH 7.4).
To determine the rate of drug transport in the apical to basolateral direction, 125 μL of the working solution of either test compounds or control compounds was added to the Transwell insert (apical compartment) and a 50 μL sample was immediately transported from the apical compartment to 200 μL of acetonitrile containing internal standard (100 nM alprazolam, 200 nM Caffeine and 100 nM tolbutamide) in a new 96-well plate as the initial donor sample (A-B). The sample was then vortexed at 1,000 rpm for 10 min. The receiver plate (basolateral compartment) wells were then filled with 235 μL of transport buffer. To determine the rate of drug transport in the basolateral to apical direction, 285 μL of the working solution of either test compounds or control compounds was added to the receiver plate wells (basolateral compartment) and a 50 μL sample was immediately transferred from the basolateral compartment to 200 μL of acetonitrile containing internal standard in a new 96-well plate as the initial donor sample (B-A). The sample was vortexed at 1,000 rpm for 10 min. The Transwell insert (apical compartment) was then filled with 75 μL of transport buffer and the apical to basolateral direction and the basolateral to apical direction were done at the same time. […] After incubation, 50 μL samples from donor sides (apical compartment for Ap→BI flux, and basolateral compartment for BI→Ap) and receiver sides (basolateral compartment for Ap→BI flux, and apical compartment for BI→Ap) were transferred to wells of a new 96-well plate, followed by the addition of 200 μL acetonitrile containing internal standard. All samples were vortexed for 10 min and then centrifuged at 3,220 g for 40 min. A 150 μL aliquot of the supernatant was then mixed with an appropriate volume of ultra-pure water prior to LC-MS/MS analysis.
To monitor for monolayer integrity, Lucifer yellow leakage was determined after the 2 h transport period. This began by preparing a stock solution of Lucifer yellow in DMSO which was diluted with HBSS (10 mM HEPES, pH 7.4.) to reach a final concentration of 100 μM. To each Transwell insert (apical compartment) was then added 100 μL of the Lucifer yellow solution, followed by filling the wells in the receiver plate (basolateral compartment) with 300 μL of HBSS (10 mM HEPES, pH 7.4).
as §1
(In general: Passage across Caco-2 layers is used to estimate intestinal permeability.)

Data set [1] can be described thus: Metabolic stability in human hepatocytes. As for the experimental part:
Metabolic Stability in Hepatocytes (Independently Performed by Pharmaron Inc., Ninqbo, CN)
After thawing was complete, hepatocytes were transferred into a 50 mL conical tube containing thawing medium and the tube was then placed into a centrifuge and spun at 100 g for 10 min. […] Using AO/PI staining, cells were counted to determine the viable cell density. […] Subsequently, 2 μL of the 100 μM test compounds or control compound solutions was transferred into the respective wells of the 96-well non-coated plate to start the reaction. […] Aliquots of 100 μL of the supernatant were then diluted by 100 μL of ultra-pure water, and the mixture was analyzed by LC-MS/MS.
All calculations were carried out using Microsoft Excel. Peak areas were determined from extracted ion chromatograms. The in-vitro half-life (t1/2) of parent compound was determined by regression of the percent parent disappearance vs. time curve.

In another data set the target is T1, BCR-ABL1 M351T (Homo sapiens, UniProt P00519, M351T).
T1 construct: BCR (fusion partner, as the printed name BCR-ABL1 says)
Nature of the data set: KinaseProfiler radiometric kinase assay, BCR-ABL1 M351T. It is filed as biochemical. As to conditions: [ATP] = 10 μM; mean of n = 2.

Results on three compounds are retold here after US20260297031A1, “HYDROXYLAMINE-BASED BCR-ABL1 INHIBITORS FOR TREATMENT OF CANCER” (University of Georgia Research Foundation, Inc., priority 2023, published 2026).

As a reminder, the share remaining is the share of the starting amount still present when the sample was taken. Low readings indicate more turnover, high ones less turnover. The IC50 is the midpoint of a concentration-inhibition curve.

As for `COc1cc(Nc2c(C#N)cnc3cc(OCCON4CCN(C)CC4)c(OC)cc23)c(F)cc1Cl` [Compound 15, 4-((4-chloro-2-fluoro-5-methoxyphenyl)amino)-6-methoxy-7-(2-((4-methylpiperazin-1-yl)oxy)ethoxy)quinoline-3-carbonitrile], in the data set with MDCKII-MDR1 cells (MDCKII-MDR1), the “efflux (P-gp), in words” value is given as “no further improvement in drug efflux was seen”. In addition, the “Efflux Ratio” value in the data set on Caco-2 cells was 6.4. In data set [1] (hepatocytes), this compound showed a share remaining at 0.5 min of 100%, a share remaining at 0.5 h of 52.5%, a fraction remaining at 1 h of 29.4% and a share remaining at 2 h of 9.48%. In data set [1] (hepatocytes), this compound returned a t1/2 of 34.2 min. It took 2 nM to reach half-maximal inhibition against BCR-ABL1 M351T (IC50).
Turning to `COc1cc2c(Nc3cccc(OC)c3Cl)c(C#N)cnc2cc1OCCON1CCN(C)CC1` [Compound 17, 4-((2-Chloro-3-methoxyphenyl)amino)-6-methoxy-7-(2-((4-methylpiperazin-1-yl)oxy)ethoxy)quinoline-3-carbonitrile], the “efflux (P-gp), in words” value in the data set with MDCKII-MDR1 cells (MDCKII-MDR1) was “greatly reduced efflux ratio”. Further, the “fold enhancement in permeability” value with MDCKII-MDR1 cells (MDCKII-MDR1, relative to bosutinib) is 31 -fold. Besides, the “Efflux Ratio” value with Caco-2 cells was found to be 3.58. Further, the “stability in hepatocytes, in words” value in data set [1] was “good stability in human hepatocytes”. Further, in data set [1] (hepatocytes), the share remaining at 0.5 min is 100%, the amount remaining at 0.5 h was determined as 80.6%, the share remaining at 1 h amounted to 60.5% and the fraction remaining at 2 h came to 35.8%. The IC50 on BCR-ABL1 M351T is 31 nM.
Consider `COc1cc(Cl)ccc1Nc1c(C#N)cnc2cc(OCCON3CCN(C)CC3)c(OC)cc12` [Compound 20, 4-((4-Chloro-2-methoxyphenyl)amino)-6-methoxy-7-(2-((4-methylpiperazin-1-yl)oxy)ethoxy)quinoline-3-carbonitrile], for which, in the data set with MDCKII-MDR1 cells (MDCKII-MDR1), the “efflux (P-gp), in words” value is given as “reduced efflux ratios” and the “permeability in MDCKII-MDR1 cells, in words” value is on record as “markedly improved permeability”. Also, in the data set with Caco-2 cells, the “Efflux Ratio” value came to 6.24. In data set [1], the “stability in hepatocytes, in words” value is recorded as “good stability in human hepatocytes”. Moreover, in data set [1] (hepatocytes), the amount remaining at 0.5 min was 100%, the share remaining at 0.5 h was found to be 63.5%, the amount remaining at 1 h was found to be 43.3% and the share remaining at 2 h turned out to be 20.1%. This compound returned an IC50 at BCR-ABL1 M351T of 13 nM.
